According to patent US20170283396A1, “DIAMINOHETEROARYL SUBSTITUTED INDAZOLES” (Bayer Pharma Aktiengesellschaft, priority 2013, published 2017):
Where two headings read alike, the source gives them in different places. Blank lines part the entries; values can stand above or below the molecule they belong to.

Tests used:
[1] = biological target: T1, catalytic domain of human Bub1 (amino acids 704-1085) (Homo sapiens, UniProt O43683); assay: Bub1 kinase assay (TR-FRET); format: biochemical
T1 construct: catalytic domain of human Bub1 (amino acids 704-1085); His6 (N); made in house; host or cells: Hi5 insect cells
T1 sequence (O43683 704-1085): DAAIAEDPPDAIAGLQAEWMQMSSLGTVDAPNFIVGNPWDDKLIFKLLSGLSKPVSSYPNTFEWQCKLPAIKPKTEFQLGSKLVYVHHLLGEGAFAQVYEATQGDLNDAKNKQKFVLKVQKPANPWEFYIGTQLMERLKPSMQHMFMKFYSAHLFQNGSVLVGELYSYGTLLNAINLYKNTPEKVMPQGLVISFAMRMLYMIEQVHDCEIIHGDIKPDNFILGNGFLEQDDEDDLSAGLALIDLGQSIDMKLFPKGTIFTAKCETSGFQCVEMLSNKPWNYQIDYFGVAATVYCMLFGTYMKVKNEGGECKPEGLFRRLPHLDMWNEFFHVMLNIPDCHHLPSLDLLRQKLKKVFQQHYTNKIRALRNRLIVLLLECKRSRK
Method: To this end, 100-fold concentrated compound solutions (in DMSO) were previously prepared by serial dilution (1:3.4) of 2 mM stocks in a clear low volume 384-well source microtiter plate (Greiner Bio-One, Frickenhausen, Germany), from which 50 nl of compounds were transferred into a black low volume test microtiter plate from the same supplier. […] The resulting mixture (5 μL final volume) was incubated at […] during 60 min., and the reaction was stopped by the addition of 5 μL of an aqueous EDTA-solution (50 mM EDTA, in 100 mM HEPES pH 7.5 and 0.2% (w/v) bovine serum albumin) which also contained the TR-FRET detection reagents (0.2 μM streptavidin-XL665 [Cisbio Bioassays, Codolet, France] and 1 nM anti-phosho-Serine antibody [Merck Millipore, cat. #35-001] and 0.4 nM LANCE EU-W1024 labeled anti-mouse IgG antibody [Perkin-Elmer, product no. AD0077, alternatively a Terbium-cryptate-labeled anti-mouse IgG antibody from Cisbio Bioassays can be used]). The stopped reaction mixture was further incubated 1 h at 22° C. in order to allow the formation of complexes between peptides and detection reagents. Subsequently, the amount of product was evaluated by measurement of the resonance energy transfer from the Eu-chelate-antibody complex recognizing the Phosphoserine residue to the streptavidin-XL665 bound to the biotin moiety of the peptide. […] IC50 values were calculated by fitting the normalized inhibition data to a 4-parameter logistic equation (Minimum, Maximum, IC50, Hill; Y=Max+(Min−Max)/(1+(X/IC50)Hill)).

[2] = test system: HeLa cell line; assay: Proliferation assay (HeLa cell line); format: cell-based; settings: Homo sapiens, 96 h, read-out: Biological Assay 2: Proliferation assay (HeLa cell line) median IC50
Method: (§1) Cultivated tumor cells (cells were ordered from ATCC, except HeLa-MaTu and HeLa-MaTu-ADR, which were ordered from EPO-GmbH, Berlin) were plated at a density of 1000 to 5000 cells/well, depending on the growth rate of the respective cell line, in a 96-well multititer plate in 200 μL of their respective growth medium supplemented 10% fetal calf serum. After 24 hours, the cells of one plate (zero-point plate) were stained with crystal violet (see below), while the medium of the other plates was replaced by fresh culture medium (200 μL), to which the test substances were added in various concentrations (0 μM, as well as in the range of 0.001-10 μM; the final concentration of the solvent dimethyl sulfoxide was 0.5%). The cells were incubated for 4 days in the presence of test substances. Cell proliferation was determined by staining the cells with crystal violet: the cells were fixed by adding 20 μl/measuring point of an 11% glutaric aldehyde solution for 15 minutes at room temperature. After three washing cycles of the fixed cells with water, the plates were dried at room temperature. The cells were stained by adding 100 μl/measuring point of a 0.1% crystal violet solution (pH 3.0). After three washing cycles of the stained cells with water, the plates were dried at room temperature. The dye was dissolved by adding 100 μl/measuring point of a 10% acetic acid solution. Absorption was determined by photometry at a wavelength of 595 nm. The change of cell number, in percent, was calculated by normalization of the measured values to the absorption values of the zero-point plate (=0%) and the absorption of the untreated (0 μm) cells (=100%). The IC50 values were determined by means of a 4 parameter fit using the company's own software.

[3] = test system: HeLa-MaTu-ADR cell line; assay: Proliferation assay (HeLa-MaTu-ADR cell line); format: cell-based; settings: 96 h, read-out: Biological Assay 2: Proliferation assay (HeLa-MaTu-ADR cell line) median IC50
Method: as §1

[4] = test system: NCI-H460 cell line; assay: Proliferation assay (NCI-H460 cell line); format: cell-based; settings: Homo sapiens, read-out: Biological Assay 2: Proliferation assay (NCI-H460 cell line) median IC50
Method: as §1

[5] = test system: DU145 cell line; assay: Proliferation assay (DU145 cell line); format: cell-based; settings: Homo sapiens, DU-145, 96 h, read-out: Biological Assay 2: Proliferation assay (DU145 cell line) median IC50
Method: as §1

[6] = test system: Caco2 cell line; assay: Proliferation assay (Caco2 cell line); format: cell-based; settings: Homo sapiens, Caco-2, 96 h, read-out: Biological Assay 2: Proliferation assay (Caco2 cell line) median IC50
Method: as §1

[7] = test system: B16F10 cell line; assay: Proliferation assay (B16F10 cell line); format: cell-based; settings: Mus musculus, B16-F10, 96 h, read-out: Biological Assay 2: Proliferation assay (B16F10 cell line) median IC50
Method: as §1

[8] = cervical cancer, 4 days incubation, crystal violet staining
[9] = TR-FRET, 10 μM ATP, 1 μM peptide substrate, read-out: Biological Assay 1: Bub1 kinase assay median IC50

Compound: Fc1ccccc1Cn1nc(-c2nc(Nc3ccncc3)cc(Nc3ccncc3)n2)c2ccccc21 [Example 2-1-2, 2-[1-(2-fluorobenzyl)-1H-indazol-3-yl]-N,N′-di(pyridin-4-yl)pyrimidine-4,6-diamine]
IC50 [1]: > 20000 nM | IC50 [2, 8]: 490 nM | IC50 ([3]; HeLa-MaTu-ADR, cervical cancer, 4 days incubation, crystal violet staining): 1500 nM | IC50 ([4]; 96 h, NCI-H460, non-small cell lung cancer, 4 days incubation, crystal violet staining): 470 nM | IC50 ([5]; DU145, prostate cancer, 4 days incubation, crystal violet staining): 360 nM | IC50 ([6]; Caco2, colon cancer, 4 days incubation, crystal violet staining): 1100 nM | IC50 ([7]; B16F10, melanoma, 4 days incubation, crystal violet staining): 250 nM

Compound: CCOc1cc(F)c(Cn2nc(-c3nc(N)c(NS(=O)(=O)CC)c(Nc4ccncc4)n3)c3ccccc32)c(F)c1 [Example 2-3-15, N-{4-amino-2-[1-(4-ethoxy-2,6-difluorobenzyl)-1H-indazol-3-yl]-6-(pyridin-4-ylamino)pyrimidin-5-yl}ethanesulfonamide]
IC50 [1, 9]: 5.8 nM | IC50 [2]: ≥ 10000 nM

Compound: CCOc1cc(F)c(Cn2nc(-c3nc(N)c(NS(=O)(=O)C(F)(F)F)c(Nc4ccncc4)n3)c3ccccc32)c(F)c1 [Example 2-3-16, N-{4-amino-2-[1-(4-ethoxy-2,6-difluorobenzyl)-1H-indazol-3-yl]-6-(pyridin-4-ylamino)pyrimidin-5-yl}-1,1,1-trifluoromethanesulfonamide]
IC50 [1, 9]: 8.7 nM | IC50 [2]: ≥ 10000 nM

Compound: CCOc1cc(F)c(Cn2nc(-c3nc4c(c(Nc5ccncc5)n3)OCC(=O)N4)c3ccccc32)c(F)c1 [Example 2-3-17, 2-[1-(4-ethoxy-2,6-difluorobenzyl)-1H-indazol-3-yl]-4-(pyridin-4-ylamino)-6H-pyrimido[5,4-b][1,4]oxazin-7(8H)-one]
IC50 [1, 9]: 8 nM | IC50 [2]: 1200 nM

Compound: CCOc1cc(F)c(Cn2nc(-c3nc4c(c(Nc5ccncn5)n3)OCC(=O)N4)c3ccccc32)c(F)c1 [Example 2-3-18, 2-[1-(4-ethoxy-2,6-difluorobenzyl)-1H-indazol-3-yl]-4-(pyrimidin-4-ylamino)-6H-pyrimido[5,4-b][1,4]oxazin-7(8H)-one]
IC50 [1, 9]: 19 nM | IC50 [2]: ≥ 10000 nM

Compound: CCOc1cc(F)c(Cn2nc(-c3nc(Nc4ccncc4)nc(Nc4ccncc4)n3)c3ccccc32)c(F)c1 [Example 2-4-5, 6-[1-(4-ethoxy-2,6-difluorobenzyl)-1H-indazol-3-yl]-N,N′-di(pyridin-4-yl)-1,3,5-triazine-2,4-diamine]
IC50 [1, 9]: 43 nM | IC50 [2]: 940 nM | IC50 [3]: 390 nM | IC50 ([4]; NCI-H460, 96 h): 750 nM | IC50 [5]: 1200 nM | IC50 [6]: 480 nM | IC50 [7]: 780 nM

Compound: CCOc1cc(F)c(Cn2nc(-c3nc(N)c(OCCO)c(Nc4ccncc4)n3)c3ccccc32)c(F)c1 [Example 2-5-1, 2-({4-amino-2-[1-(4-ethoxy-2,6-difluorobenzyl)-1H-indazol-3-yl]-6-(pyridin-4-ylamino)pyrimidin-5-yl}oxy)ethanol]
IC50 [1, 9]: 4.1 nM | IC50 [2]: 3500 nM

Second part, the molecule after the results:

IC50 [1, 9]: 430 nM | IC50 [2]: 1500 nM | IC50 [3]: 1100 nM | IC50 ([4]; NCI-H460, 96 h): 4300 nM | IC50 [5]: 3700 nM | IC50 [6]: 420 nM | IC50 [7]: 540 nM
Compound: CCOc1cc(F)c(Cn2nc(-c3nc(Nc4ccncc4)c(OC)c(Nc4ccncc4)n3)c3ccccc32)c(F)c1 [Example 2-4-2, 2-[1-(4-ethoxy-2,6-difluorobenzyl)-1H-indazol-3-yl]-5-methoxy-N,N′-di(pyridin-4-yl)pyrimidine-4,6-diamine]

IC50 [1]: 640 nM | IC50 [2, 8]: 3400 nM
Compound: CCOc1cc(F)c(Cn2nc(-c3nc(Nc4ccncc4)c(N4CCOCC4)c(Nc4ccncc4)n3)c3ccccc32)c(F)c1 [Example 2-4-3, 2-[1-(4-ethoxy-2,6-difluorobenzyl)-1H-indazol-3-yl]-5-(morpholin-4-yl)-N,N′-di(pyridin-4-yl)pyrimidine-4,6-diamine]

IC50 [1, 9]: 220 nM | IC50 [2]: 2500 nM
Compound: CCOc1cc(F)c(Cn2nc(-c3nc(Nc4ccncc4)c(NC(=O)COC)c(Nc4ccncc4)n3)c3ccccc32)c(F)c1 [Example 2-4-8, N-{2-[1-(4-ethoxy-2,6-difluorobenzyl)-1H-indazol-3-yl]-4,6-bis(pyridin-4-ylamino)pyrimidin-5-yl}-2-methoxyacetamide]

IC50 [1, 9]: 22 nM | IC50 [2]: ≥ 10000 nM
Compound: CCOc1cc(F)c(Cn2nc(-c3nc(Nc4ccncn4)c(NC(=O)COC)c(Nc4ccncn4)n3)c3ccccc32)c(F)c1 [Example 2-4-9, N-{2-[1-(4-ethoxy-2,6-difluorobenzyl)-1H-indazol-3-yl]-4,6-bis(pyrimidin-4-ylamino)pyrimidin-5-yl}-2-methoxyacetamide]

IC50 [1, 9]: 710 nM | IC50 [2]: ≥ 10000 nM
Compound: CCOc1cc(F)c(Cn2nc(-c3nc(Nc4ccncc4)c(NS(=O)(=O)CC)c(Nc4ccncc4)n3)c3ccccc32)c(F)c1 [Example 2-4-10, N-{2-[1-(4-ethoxy-2,6-difluorobenzyl)-1H-indazol-3-yl]-4,6-bis(pyridin-4-ylamino)pyrimidin-5-yl}ethanesulfonamide]

IC50 [1, 9]: 170 nM | IC50 [2]: 1200 nM | IC50 [3]: 280 nM | IC50 ([4]; NCI-H460, 96 h): 590 nM | IC50 [5]: 940 nM | IC50 [6]: 400 nM | IC50 [7]: 520 nM
Compound: CCOc1cc(F)c(Cn2nc(-c3nc(Nc4ccncc4)c(OCCO)c(Nc4ccncc4)n3)c3ccccc32)c(F)c1 [Example 2-5-2, 2-({2-[1-(4-ethoxy-2,6-difluorobenzyl)-1H-indazol-3-yl]-4,6-bis-(pyridin-4-ylamino)pyrimidin-5-yl}oxy)ethanol]
